According to patent US20210204549A1, “BACILLUS AMYLOLIQUEFACIENS AND NEONICOTINOIDS MIXTURES AND METHODS OF USE THEREOF” (Valent U.S.A. LLC, priority 2020, published 2021):

Test system: tomato spotted wilt virus ("TSWV")
Assay: Greenhouse test of in-furrow treatments on peanut plants infected with tomato spotted wilt virus
Format: in vivo
Conditions: peanut plants (Arachis hypogaea), furrow spray; imidacloprid 254.85 g/HA; 63 days after treatment
Experimental: The following greenhouse test was conducted from May 31, 2018 to Oct. 22, 2018 in Tift County, Georgia. Peanut plants (Arachis hypogaea) were used in the test as the crop plant. 6 seeds were planted per foot per row giving 360 seeds per plot. The peanut plants were infected with tomato spotted wilt virus (“TSWV”). Furrows were sprayed with B. amyloliquefaciens strain PTA-4838, imidacloprid, fluopyram and/or Mycorrhizae consortium at the rates disclosed in Table 1 prior to seedling plating. The plants were then infected with TSWV. Number of live plants were counted at 63 days after treatment. Percent TSWV infection was calculated as percent of row feet infected per plot. All data was analyzed using Bartlett's test and with p value of […] for determining significance of the results.

SMILES: O=[N+]([O-])NC1=NCCN1Cc1ccc(Cl)nc1 [Imidacloprid, imidacloprid]
- % Control: 96.4a %
